Assay results reported in US20250170248A1, “SMARCA DEGRADERS AND USES THEREOF” (Kymera Therapeutics, Inc., priority 2021, published 2025).

Legend:
Format in all cases: cell-based
SMARCA2 [1] = biological target: T1, SMARCA2 (Homo sapiens, UniProt P51531); assay: SMARCA2 Western blot degradation in MV4-11 cells; set-up: SMARCA2/SMARCA4 protein degradation selectivity in MV4-11 cells; endogenous in cells; host or cells: MV4-11; conditions: for Dmax: MV4-11, MV4-11 cells, read-out: SMARCA2 MSD MV411 degradation 24 h: average Dmax %; for DC50: read-out: SMARCA2 MSD MV411 degradation 24 h: Mean external-Abs DC50; for Selectivity in MV411: SMARCA2/4 selectivity
SMARCA4 = biological target: T2, SMARCA4 (Homo sapiens, UniProt P51532); assay: SMARCA4 Western blot degradation in MV4-11 cells; conditions: 24 h; for Dmax: MV4-11, MV4-11 cells, read-out: SMARCA4 MSD MV411 degradation 24 h: average Dmax %; for DC50: MV4-11 cells, read-out: SMARCA4 MSD MV411 degradation 24 h: Mean external-Abs DC50
T2 construct: SMARCA2/SMARCA4 protein degradation selectivity in MV4-11 cells; endogenous in cells; host or cells: MV4-11
Procedure, shortened: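 24 h compound exposure, MV4-11; RIPA lysates → SDS-PAGE → NC membrane; anti-SMARCA2/BRM, anti-BRG1, β-actin loading control; LI-COR fluorescence read. DC50 and Dmax at 24 h reported as letter bins.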

SMARCA2 [2] = biological target: T1, SMARCA2; assay: MSD SMARCA2 degradation in A549 cell line; conditions: for Dmax: A549, A549 cells; for Dmax / DC50: 24 h; for DC50: read-out: SMARCA2 MSD A549 degradation 24 h: Average external-Abs DC50
Procedure, shortened: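 A549 cells treated 24 h with compound, 3-fold series from 1000 nM. Lysates captured on MSD plates and SMARCA2 quantified with anti-SMARCA2 and SULFO-TAG secondary antibodies (electrochemiluminescence). DC50 and Dmax (% degradation at 24 h) reported as letter bins.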

T2 sequence (P51532 whole entry): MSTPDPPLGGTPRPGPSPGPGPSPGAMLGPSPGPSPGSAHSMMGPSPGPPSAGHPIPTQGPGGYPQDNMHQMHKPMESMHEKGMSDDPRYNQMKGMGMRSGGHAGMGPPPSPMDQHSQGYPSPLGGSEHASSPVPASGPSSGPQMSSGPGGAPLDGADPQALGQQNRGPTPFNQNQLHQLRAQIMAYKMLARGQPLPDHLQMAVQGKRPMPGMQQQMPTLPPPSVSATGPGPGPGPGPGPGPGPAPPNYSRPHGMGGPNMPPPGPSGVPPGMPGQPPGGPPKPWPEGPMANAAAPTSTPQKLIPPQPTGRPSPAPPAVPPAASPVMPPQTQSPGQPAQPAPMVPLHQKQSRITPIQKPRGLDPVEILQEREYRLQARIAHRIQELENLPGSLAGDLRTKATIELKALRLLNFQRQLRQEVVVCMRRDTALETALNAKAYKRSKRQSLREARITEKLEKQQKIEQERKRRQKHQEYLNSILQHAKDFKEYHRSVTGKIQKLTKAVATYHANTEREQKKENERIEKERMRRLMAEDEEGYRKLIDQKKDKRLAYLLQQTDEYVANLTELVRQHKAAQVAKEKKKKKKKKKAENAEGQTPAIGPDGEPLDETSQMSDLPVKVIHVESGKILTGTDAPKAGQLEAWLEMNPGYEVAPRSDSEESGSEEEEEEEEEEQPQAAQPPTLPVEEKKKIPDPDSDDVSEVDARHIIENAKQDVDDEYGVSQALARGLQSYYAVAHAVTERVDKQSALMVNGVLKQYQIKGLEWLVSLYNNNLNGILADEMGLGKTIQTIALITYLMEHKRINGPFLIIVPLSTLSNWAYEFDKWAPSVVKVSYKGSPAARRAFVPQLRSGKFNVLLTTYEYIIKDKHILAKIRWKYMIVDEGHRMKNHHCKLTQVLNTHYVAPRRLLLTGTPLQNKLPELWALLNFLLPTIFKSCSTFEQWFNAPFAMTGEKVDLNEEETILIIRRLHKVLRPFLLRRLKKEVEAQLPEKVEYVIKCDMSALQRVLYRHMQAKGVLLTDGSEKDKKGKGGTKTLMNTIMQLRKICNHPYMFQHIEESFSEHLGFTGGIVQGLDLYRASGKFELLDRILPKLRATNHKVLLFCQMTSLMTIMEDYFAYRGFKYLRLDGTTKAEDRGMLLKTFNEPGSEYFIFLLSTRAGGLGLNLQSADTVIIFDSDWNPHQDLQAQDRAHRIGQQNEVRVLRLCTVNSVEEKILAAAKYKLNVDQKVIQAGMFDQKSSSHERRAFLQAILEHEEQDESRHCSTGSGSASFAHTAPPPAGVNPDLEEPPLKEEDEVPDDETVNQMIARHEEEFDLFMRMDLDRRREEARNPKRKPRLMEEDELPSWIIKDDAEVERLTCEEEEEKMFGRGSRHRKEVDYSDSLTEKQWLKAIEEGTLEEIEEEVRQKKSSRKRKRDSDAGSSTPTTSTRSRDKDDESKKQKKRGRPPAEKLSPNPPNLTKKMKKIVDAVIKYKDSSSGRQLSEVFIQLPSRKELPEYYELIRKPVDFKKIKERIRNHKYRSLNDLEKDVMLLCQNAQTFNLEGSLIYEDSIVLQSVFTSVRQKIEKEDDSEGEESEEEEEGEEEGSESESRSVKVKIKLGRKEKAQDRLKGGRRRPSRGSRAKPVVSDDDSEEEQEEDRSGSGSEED
T1 sequence (P51531 whole entry): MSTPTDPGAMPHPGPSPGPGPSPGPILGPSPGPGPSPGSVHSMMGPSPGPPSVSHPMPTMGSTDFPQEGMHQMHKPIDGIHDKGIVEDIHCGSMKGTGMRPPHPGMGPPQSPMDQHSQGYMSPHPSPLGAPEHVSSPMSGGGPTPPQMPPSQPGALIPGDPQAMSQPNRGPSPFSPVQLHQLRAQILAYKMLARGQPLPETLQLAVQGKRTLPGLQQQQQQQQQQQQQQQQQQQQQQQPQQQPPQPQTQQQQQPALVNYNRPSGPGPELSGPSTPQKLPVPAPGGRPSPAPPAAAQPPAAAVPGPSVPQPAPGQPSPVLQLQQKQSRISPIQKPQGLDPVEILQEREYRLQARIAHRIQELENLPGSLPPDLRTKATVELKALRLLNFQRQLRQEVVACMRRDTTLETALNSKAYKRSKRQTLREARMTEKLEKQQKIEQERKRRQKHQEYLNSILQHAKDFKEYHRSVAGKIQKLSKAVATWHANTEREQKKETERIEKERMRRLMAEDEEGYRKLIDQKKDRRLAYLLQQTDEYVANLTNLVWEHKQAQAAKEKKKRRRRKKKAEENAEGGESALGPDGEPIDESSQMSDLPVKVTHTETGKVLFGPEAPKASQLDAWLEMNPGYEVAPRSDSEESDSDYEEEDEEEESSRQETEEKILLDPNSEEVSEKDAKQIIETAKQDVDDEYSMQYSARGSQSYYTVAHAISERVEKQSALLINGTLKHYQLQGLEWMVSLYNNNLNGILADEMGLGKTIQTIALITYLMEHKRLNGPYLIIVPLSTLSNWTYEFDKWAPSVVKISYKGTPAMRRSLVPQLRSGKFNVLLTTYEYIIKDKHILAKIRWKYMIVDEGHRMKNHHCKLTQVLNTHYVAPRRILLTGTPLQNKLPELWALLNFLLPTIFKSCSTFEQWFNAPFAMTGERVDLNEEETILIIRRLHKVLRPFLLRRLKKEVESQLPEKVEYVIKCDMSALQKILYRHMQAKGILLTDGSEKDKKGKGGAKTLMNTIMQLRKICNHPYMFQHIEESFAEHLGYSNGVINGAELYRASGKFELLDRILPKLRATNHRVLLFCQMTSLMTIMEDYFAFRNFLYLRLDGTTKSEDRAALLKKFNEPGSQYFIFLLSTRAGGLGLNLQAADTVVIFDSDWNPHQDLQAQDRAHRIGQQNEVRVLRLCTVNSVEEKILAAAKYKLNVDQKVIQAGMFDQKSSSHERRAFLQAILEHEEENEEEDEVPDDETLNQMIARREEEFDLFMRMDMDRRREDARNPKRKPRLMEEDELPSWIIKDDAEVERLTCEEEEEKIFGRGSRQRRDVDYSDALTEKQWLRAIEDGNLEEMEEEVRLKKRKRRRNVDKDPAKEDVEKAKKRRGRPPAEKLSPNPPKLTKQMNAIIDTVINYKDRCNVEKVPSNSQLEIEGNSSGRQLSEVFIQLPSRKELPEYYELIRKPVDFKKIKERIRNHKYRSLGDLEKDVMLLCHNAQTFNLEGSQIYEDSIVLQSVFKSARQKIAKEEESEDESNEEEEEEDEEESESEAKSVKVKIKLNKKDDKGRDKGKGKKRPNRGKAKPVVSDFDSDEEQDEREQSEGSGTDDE

| SMILES | Dmax (SMARCA2 [1]; 24 h) | DC50 (SMARCA2 [1]; MV4-11 cells, 24 h) | Selectivity in MV411 (SMARCA2 [1]; MV4-11 cells) | Dmax (SMARCA4) | DC50 (SMARCA4) | Dmax (SMARCA2 [2]) | DC50 (SMARCA2 [2]; A549 cells) | SMARCA2 MSD MV411 degradation 24 h: average Dmax % (SMARCA2 [1]; MV4-11 cells, 24 h) | SMARCA2 MSD A549 degradation 24 h: Average Dmax % (SMARCA2 [2]; A549 cells) |
| --- | --- | --- | --- | --- | --- | --- | --- | --- | --- |
| Cc1ncsc1-c1ccc(CNC(=O)[C@@H]2C[C@@H](O)CN2C(=O)C(c2cc(N3CC4(CCC(N5CCC(c6cnc(N7CCc8[nH]c9nnc(-c%10ccccc%10O)cc9c8[C@@H]7C)nc6)CC5)CC4)C3)no2)C(C)C)cc1 (single isomer, unassigned) [I-9] | > 90% | 1 to 10 nM | C (C (10-100 fold)) | 70 to 90% | 10 to 100 nM | 70 to 90% | 10 to 50 nM |  |  |
| C#Cc1ccc([C@H](C)NC(=O)[C@@H]2C[C@@H](O)CN2C(=O)[C@@H](c2cc(OCCN3CCN4c5cc(-c6ccccc6O)nnc5NC[C@H]4C3)no2)C(C)C)cc1 (single isomer, unassigned) [I-273] | > 90% | 1 to 10 nM | C (C (10-100 fold)) | 50 to 70% | > 100 nM | > 90% | > 100 nM |  |  |
| C#Cc1ccc([C@H](C)NC(=O)[C@@H]2C[C@@H](O)CN2C(=O)C(c2cc(N3CCC(CN4CCC(N5CCC(N6CCN7c8cc(-c9ccccc9O)nnc8NC[C@H]7C6)CC5)CC4)CC3)no2)C(C)C)c(Cl)c1 (stereo partly drawn) [I-324] | < 50% | > 100 nM | C (C (10-100 fold)) | < 50% | > 100 nM | < 50% | > 100 nM |  |  |
| Cc1ncsc1-c1ccc(CNC(=O)[C@@H]2C[C@@H](O)CN2C(=O)[C@@H](NC(=O)C2(F)CC2)C(C)(C)C)c(OCCCCN2CCC(c3cnc(N4CCN5c6cc(-c7ccccc7O)nnc6NC[C@H]5C4)nc3)CC2)c1 (single isomer, unassigned) [I-49] | > 90% | < 1 nM | C (C (10-100 fold)) | > 90% | 1 to 10 nM | > 90% | 10 to 50 nM |  |  |
| Cc1ncsc1-c1ccc(CNC(=O)[C@@H]2C[C@@H](O)CN2C(=O)[C@@H](NC(=O)N2CC3(CC(N4CCC(c5cnc(N6CCN7c8cc(-c9ccccc9O)nnc8NC[C@H]7C6)nc5)CC4)C3)C2)C(C)(C)C)cc1 [I-64] | > 90% | 1 to 10 nM | C (C (10-100 fold)) | 50 to 70% | 10 to 100 nM | > 90% | 10 to 50 nM |  |  |
| C#Cc1ccc(CNC(=O)[C@@H]2C[C@@H](O)CN2C(=O)[C@@H](NC(=O)N2CC3(CC(N4CCC(c5cnc(N6CCc7[nH]c8nnc(-c9ccccc9O)cc8c7[C@H]6CO)nc5)CC4)C3)C2)C(C)(C)C)c(Cl)c1 [I-318] | 70 to 90% | 1 to 10 nM | C (C (10-100 fold)) | 70 to 90% | > 100 nM | > 90% | 10 to 50 nM |  |  |
| C#Cc1ccc(CNC(=O)[C@@H]2C[C@@H](O)CN2C(=O)[C@@H](NC(=O)N2CC3(CC(N4CCC(c5cnc(N6CCc7[nH]c8nnc(-c9ccccc9O)cc8c7[C@@H]6C)s5)CC4)C3)C2)C(C)(C)C)cc1 [I-335] | 50 to 70% | 10 to 100 nM | D (D (<10 fold)) | 70 to 90% | > 100 nM | 70 to 90% | > 100 nM |  |  |
| C#Cc1ccc(CNC(=O)[C@@H]2C[C@@H](O)CN2C(=O)[C@@H](NC(=O)N2CCN(CC3CCN([C@H]4CC[C@@H](N5CCN6c7cc(-c8ccccc8O)nnc7NC[C@H]6C5)CC4)CC3)CC2)C(C)(C)C)cc1 [I-216] | < 50% | > 100 nM | C (C (10-100 fold)) | < 50% | > 100 nM | 70 to 90% | > 100 nM |  |  |
| C#Cc1ccc(CNC(=O)[C@@H]2C[C@@H](O)CN2C(=O)[C@@H](NC(=O)N2CCN(C[C@@H]3CCN(c4cnc(N5CCc6[nH]c7nnc(-c8ccccc8O)cc7c6[C@H]5C)nc4)C3)CC2)C(C)(C)C)cc1 (single isomer, unassigned) [I-161] | 50 to 70% | 10 to 100 nM | C (C (10-100 fold)) | 50 to 70% | > 100 nM | > 90% | > 100 nM |  |  |
| C#Cc1ccc([C@H](C)NC(=O)[C@@H]2C[C@@H](O)CN2C(=O)[C@@H](NC(=O)N2CC3(CC(N4CCC(N5CCC(N6CCc7[nH]c8nnc(-c9ccccc9O)cc8c7[C@H]6C)CC5)CC4)C3)C2)C(C)(C)C)cc1 [I-212] | 70 to 90% | 10 to 100 nM | C (C (10-100 fold)) | < 50% | > 100 nM | > 90% | > 100 nM |  |  |
| C#Cc1ccc(CNC(=O)[C@@H]2C[C@@H](O)CN2C(=O)[C@@H](NC(=O)N2CC3(CC(N4CC(N5CCC(c6cnc(N7CCc8[nH]c9nnc(-c%10ccccc%10O)cc9c8[C@H]7C)nc6)CC5)C4)C3)C2)C(C)(C)C)cc1 [I-268] | 70 to 90% | 10 to 100 nM | C (C (10-100 fold)) | 50 to 70% | > 100 nM | > 90% | > 100 nM |  |  |
| C#Cc1ccc(CNC(=O)[C@@H]2C[C@@H](O)CN2C(=O)[C@@H](NC(=O)N2CC3(CC(N4CCC(N5CC6(CC(N7CCN8c9cc(-c%10ccccc%10O)nnc9NC[C@H]8C7)C6)C5)CC4)C3)C2)C(C)(C)C)cc1 [I-224] | 70 to 90% | 1 to 10 nM | C (C (10-100 fold)) | 70 to 90% | 10 to 100 nM | > 90% | 50 to 100 nM |  |  |
| Cc1ncsc1-c1ccc(CNC(=O)[C@@H]2C[C@@H](O)CN2C(=O)[C@@H](NC(=O)[C@H]2CC3(C2)C[C@H](N2CCN(c4cnc(N5CCN6c7cc(-c8ccccc8O)nnc7NC[C@H]6C5)nc4)CC2)C3)C(C)(C)C)cc1 (stereo partly drawn) [I-18] |  | 10 to 100 nM | C (C (10-100 fold)) | < 50% | 10 to 100 nM |  |  | D (D (<50% degradation)) | D (D (<50% degradation)) |
| C#Cc1ccc(CNC(=O)[C@@H]2C[C@@H](O)CN2C(=O)[C@@H](NC(=O)N2CCC(C(=O)N3CCC(N4CCC(N5CCc6[nH]c7nnc(-c8ccccc8O)cc7c6[C@H]5C)CC4)CC3)CC2)C(C)(C)C)cc1 [I-192] | < 50% | > 100 nM | C (C (10-100 fold)) | < 50% | > 100 nM | 70 to 90% | > 100 nM |  |  |
| C#Cc1ccc(CNC(=O)[C@@H]2C[C@@H](O)CN2C(=O)[C@@H](NC(=O)N2CC3(CC(N4CCC(c5cnc(N6CCN7c8cc(-c9ccccc9O)nnc8NC[C@H]7C6)nc5)CC4)C3)C2)C(C)(C)C)cc1 [I-111] | > 90% | < 1 nM | C (C (10-100 fold)) | > 90% | 10 to 100 nM | > 90% | < 10 nM |  |  |
| C#Cc1ccc(CNC(=O)[C@@H]2C[C@@H](O)CN2C(=O)[C@@H](NC(=O)[C@H]2CCC3(CC2)C[C@H](N2CCC(c4cnc(N5CCN6c7cc(-c8ccccc8O)nnc7NC[C@H]6C5)nc4)CC2)C3)C(C)(C)C)c(F)c1 (single isomer, unassigned) [I-97] | 70 to 90% | 1 to 10 nM | A (A (>500 fold)) | < 50% | > 100 nM | > 90% | 10 to 50 nM |  |  |
